What all share (assay): biochemical
Common to all, as to settings: IC50 (M)

In assay [1] the target is recombinant wildtype and mutated PPO (Amaranthus PPO2: PPX2L_WC SEQ ID NO 2, PPX2L_AC SEQ ID NO 4, dG210 SEQ ID NO 6 & 8) (Amaranthus tuberculatus, UniProt Q0NZW9, D133A/F420M/R128H).
For assay [2], the target named is recombinant wildtype and mutated PPO (Amaranthus PPO2: PPX2L_WC SEQ ID NO 2, PPX2L_AC SEQ ID NO 4, dG210 SEQ ID NO 6 & 8) (Amaranthus tuberculatus, UniProt Q0NZW9, D133A/F420M/R128M).
For assay [3], the target named is recombinant wildtype and mutated PPO (Amaranthus PPO2: PPX2L_WC SEQ ID NO 2, PPX2L_AC SEQ ID NO 4, dG210 SEQ ID NO 6 & 8) (Amaranthus tuberculatus, UniProt Q0NZW9, D133A/F420V/R128C).
The target of assay [4] is T1, recombinant wildtype and mutated PPO (Amaranthus PPO2: PPX2L_WC SEQ ID NO 2, PPX2L_AC SEQ ID NO 4, dG210 SEQ ID NO 6 & 8) (Amaranthus tuberculatus, UniProt Q0NZW9, D133A/F420L/R128I).
T1 sequence (Q0NZW9 1-534 R128I/D133A/F420L): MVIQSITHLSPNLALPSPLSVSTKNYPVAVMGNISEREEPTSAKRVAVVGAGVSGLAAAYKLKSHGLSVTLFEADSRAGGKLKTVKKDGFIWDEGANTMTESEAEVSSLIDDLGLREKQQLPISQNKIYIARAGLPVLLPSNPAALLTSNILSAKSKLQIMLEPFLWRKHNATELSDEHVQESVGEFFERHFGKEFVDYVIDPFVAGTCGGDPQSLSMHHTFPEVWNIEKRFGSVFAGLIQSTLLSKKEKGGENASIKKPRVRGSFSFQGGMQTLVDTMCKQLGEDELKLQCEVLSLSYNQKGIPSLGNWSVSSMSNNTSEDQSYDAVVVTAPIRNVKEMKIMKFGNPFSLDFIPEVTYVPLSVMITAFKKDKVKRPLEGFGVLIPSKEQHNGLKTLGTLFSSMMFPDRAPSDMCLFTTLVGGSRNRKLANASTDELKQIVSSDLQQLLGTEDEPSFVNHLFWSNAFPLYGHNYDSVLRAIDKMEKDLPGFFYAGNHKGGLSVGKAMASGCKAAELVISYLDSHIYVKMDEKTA

Assay [5] has as its target recombinant wildtype and mutated PPO (Amaranthus PPO2: PPX2L_WC SEQ ID NO 2, PPX2L_AC SEQ ID NO 4, dG210 SEQ ID NO 6 & 8) (Amaranthus tuberculatus, UniProt Q0NZW9, D133A/F420M/R128V).
The target in assay [6] is recombinant wildtype and mutated PPO (Amaranthus PPO2: PPX2L_WC SEQ ID NO 2, PPX2L_AC SEQ ID NO 4, dG210 SEQ ID NO 6 & 8) (Amaranthus tuberculatus, UniProt Q0NZW9, D133A/F420M/R128C).
Assay [7] has as its target T2, recombinant wildtype and mutated PPO (Amaranthus PPO2: PPX2L_WC SEQ ID NO 2, PPX2L_AC SEQ ID NO 4, dG210 SEQ ID NO 6 & 8) (Amaranthus tuberculatus, UniProt Q0NZW9, D133A/F420M/R128N).
T2 sequence (Q0NZW9 1-534 R128N/D133A/F420M): T1 sequence (Q0NZW9 1-534 R128I/D133A/F420L) with I128N, L420M

Assay [8] deals with T3, recombinant wildtype and mutated PPO (Amaranthus PPO2: PPX2L_WC SEQ ID NO 2, PPX2L_AC SEQ ID NO 4, dG210 SEQ ID NO 6 & 8) (Amaranthus tuberculatus, UniProt Q0NZW9, D133A/F420V/R128I).
T3 sequence (Q0NZW9 1-534 R128I/D133A/F420V): T1 sequence (Q0NZW9 1-534 R128I/D133A/F420L) with L420V

Drawing on patent US11866720B2, “Transgenic or non-transgenic plants with mutated protoporphyrinogen oxidase having increased tolerance to herbicides” (priority 2013, dated 2024), this text covers IC50 for 13 compounds.

SMILES strings stand for the structures. Where a chain is given by its changes, count along the chain named. Where “and” joins values, the source holds several entries; their conditions need not be identical. Equal values may be shown once. A value given as a limit tells only on which side of the number the result lay.

recombinant wildtype and mutated PPO (Amaranthus PPO2: PPX2L_WC SEQ ID NO 2, PPX2L_AC SEQ ID NO 4, dG210 SEQ ID NO 6 & 8) (Amaranthus tuberculatus, UniProt Q0NZW9, D133A/F420M/R128H), sequence (Q0NZW9 1-534 R128H/D133A/F420M): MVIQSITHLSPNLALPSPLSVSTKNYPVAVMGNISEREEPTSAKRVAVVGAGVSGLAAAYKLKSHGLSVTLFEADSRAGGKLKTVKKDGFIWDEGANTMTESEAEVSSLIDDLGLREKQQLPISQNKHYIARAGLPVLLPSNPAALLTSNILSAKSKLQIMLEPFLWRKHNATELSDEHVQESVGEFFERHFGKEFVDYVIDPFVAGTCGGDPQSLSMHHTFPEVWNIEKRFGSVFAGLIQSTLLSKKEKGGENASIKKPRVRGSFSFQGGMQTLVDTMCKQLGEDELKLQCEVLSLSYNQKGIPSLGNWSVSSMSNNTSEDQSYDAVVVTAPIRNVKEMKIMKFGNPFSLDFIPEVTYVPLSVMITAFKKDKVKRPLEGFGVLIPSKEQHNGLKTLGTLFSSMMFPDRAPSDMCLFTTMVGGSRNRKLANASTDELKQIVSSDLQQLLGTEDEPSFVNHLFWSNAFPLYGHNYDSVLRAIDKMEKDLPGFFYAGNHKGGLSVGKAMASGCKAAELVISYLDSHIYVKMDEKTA
recombinant wildtype and mutated PPO (Amaranthus PPO2: PPX2L_WC SEQ ID NO 2, PPX2L_AC SEQ ID NO 4, dG210 SEQ ID NO 6 & 8) (Amaranthus tuberculatus, UniProt Q0NZW9, D133A/F420M/R128M), sequence (Q0NZW9 1-534 R128M/D133A/F420M): as the sequence (Q0NZW9 1-534 R128H/D133A/F420M) above, with H128M counted along it
recombinant wildtype and mutated PPO (Amaranthus PPO2: PPX2L_WC SEQ ID NO 2, PPX2L_AC SEQ ID NO 4, dG210 SEQ ID NO 6 & 8) (Amaranthus tuberculatus, UniProt Q0NZW9, D133A/F420V/R128C), sequence (Q0NZW9 1-534 R128C/D133A/F420V): as the sequence (Q0NZW9 1-534 R128H/D133A/F420M) above, with H128C, M420V counted along it
recombinant wildtype and mutated PPO (Amaranthus PPO2: PPX2L_WC SEQ ID NO 2, PPX2L_AC SEQ ID NO 4, dG210 SEQ ID NO 6 & 8) (Amaranthus tuberculatus, UniProt Q0NZW9, D133A/F420M/R128V), sequence (Q0NZW9 1-534 R128V/D133A/F420M): as the sequence (Q0NZW9 1-534 R128H/D133A/F420M) above, with H128V counted along it
recombinant wildtype and mutated PPO (Amaranthus PPO2: PPX2L_WC SEQ ID NO 2, PPX2L_AC SEQ ID NO 4, dG210 SEQ ID NO 6 & 8) (Amaranthus tuberculatus, UniProt Q0NZW9, D133A/F420M/R128C), sequence (Q0NZW9 1-534 R128C/D133A/F420M): as the sequence (Q0NZW9 1-534 R128H/D133A/F420M) above, with H128C counted along it

In general, IC50 refers to the concentration that inhibits the measured activity by half. As for `C#CCN1C(=O)COc2cc(F)c(N3C(=O)C4=C(CCCC4)C3=O)cc21` [Flumioxazin, flumioxazin], the half-maximal inhibitory concentration (IC50) in assay [1] was no less than 1e-05 M; in assay [2] it was no less than 1e-05 M; in assay [3], 7.28e-06 M; in assay [4], no less than 1e-05 M; in assay [5] it was no less than 1e-05 M; in assay [6], no less than 1e-05 M. Also, the values for the IC50 in assay [7] and in assay [8] were 6.15e-06 M and no less than 1e-05 M, respectively.
Turning to `C=CCOC(=O)C(C)(C)OC(=O)c1cc(-n2c(=O)cc(C(F)(F)F)n(C)c2=O)ccc1Cl` [BUTAFENACIL], the IC50 in assay [1] amounted to 1.28e-08 M; in assay [2], 4.38e-08 M; in assay [3], 6.69e-08 M; in assay [4], 8.02e-08 M; in assay [5], 1.05e-08 M; in assay [6] it was 2.31e-08 M. Further, the figures for the IC50 in assay [7] and in assay [8] were 2.84e-08 M and 2.56e-08 M, respectively.
`C#CCN1C(=O)C(F)(F)Oc2cc(F)c(-n3c(=O)n(C)c(=S)n(C)c3=O)cc21`: the 50% inhibitory concentration (IC50) in assay [1] was 2.64e-08 M and 2.13e-08 M; in assay [2], 7.69e-08 M and 7.07e-08 M and 4.84e-08 M; in assay [3], 1.66e-07 M and 2.66e-07 M; in assay [4], 4.05e-07 M and 2.45e-07 M; in assay [5], 6.5e-08 M and 4.86e-08 M; in assay [6], 2.53e-08 M and 2.33e-08 M. Also, the IC50 in assay [7] is 7.12e-08 M and 4.97e-08 M; in assay [8] it was 2.14e-07 M and 3.15e-07 M.
As to `COC(=O)C(OC)Oc1ccccc1Oc1cc(-n2c(=O)cc(C(F)(F)F)n(C)c2=O)c(F)cc1Cl` (centres unmarked), the IC50 stood at 1.76e-08 M in assay [1]; 1.62e-08 M in assay [2]; 1.16e-08 M in assay [3]; 7.13e-08 M in assay [4]; 1.49e-08 M in assay [5]; 1.16e-08 M in assay [6]. Also, the IC50 in assay [7] amounted to 1.2e-07 M; in assay [8], 1.71e-08 M.
For the compound `O=C(O)c1cc(Oc2ccc(C(F)(F)F)cc2Cl)ccc1[N+](=O)[O-]` [ACIFLUORFEN], the IC50 in assay [1] is no less than 1e-05 M; in assay [2] it was no less than 1e-05 M; in assay [3] it was 6.72e-06 M; in assay [4] it was no less than 1e-05 M; in assay [5], no less than 1e-05 M; in assay [6], no less than 1e-05 M. In addition, the figures for the IC50 in assay [7] and in assay [8] were no less than 1e-05 M and 1.21e-05 M, respectively.
In the case of `CCOC(=O)COc1ncccc1Oc1cc(-n2c(=O)cc(C(F)(F)F)n(C)c2=O)c(F)cc1Cl` [A.13, ethyl [3-[2-chloro-4-fluoro-5-(1-methyl-6-trifluoromethyl-2,4-dioxo-1,2,3,4-tetrahydropyrimidin-3-yl)phenoxy]-2-pyridyloxy]acetate], the 50% inhibitory concentration (IC50) in assay [1] is 4.18e-08 M; in assay [2], 4.83e-08 M; in assay [3], 1.24e-07 M; in assay [4], 2.01e-07 M; in assay [5], 3.58e-08 M; in assay [6], 6.95e-08 M. For the same compound, the values for the IC50 in assay [7] and in assay [8] were 1.92e-07 M and 4.38e-08 M, respectively.
`CCOc1cc(Oc2ccc(C(F)(F)F)cc2Cl)ccc1[N+](=O)[O-]` [OXIFLUORFEN]: the half-inhibitory concentration (IC50) in assay [1] came to 3.68e-07 M; in assay [2], 7.36e-07 M; in assay [3] it was 6.52e-08 M; in assay [4] it was 4.21e-06 M; in assay [5], 1.05e-06 M; in assay [6], 4.16e-07 M. Further, the IC50 in assay [7] came to 3.91e-07 M; in assay [8], 1.98e-07 M.
As for `CS(=O)(=O)NC(=O)c1cc(Oc2ccc(C(F)(F)F)cc2Cl)ccc1[N+](=O)[O-]` [Fomesafen, fomesafen], the IC50 in assay [1] is 2.91e-06 M; in assay [2] it was no less than 1e-05 M; in assay [3], 2.36e-06 M; in assay [4], no less than 1e-05 M; in assay [5] it was no less than 1e-05 M; in assay [6], 1.1e-05 M. The IC50 in assay [7] came to 1.07e-05 M; in assay [8] it was 2.79e-06 M.
As to `CCOC(=O)C(C)OC(=O)c1cc(Oc2ccc(C(F)(F)F)cc2Cl)ccc1[N+](=O)[O-]` (centres unmarked) [Lactofen, lactofen], the IC50 worked out at 6.13e-08 M in assay [1]; 1.31e-07 M in assay [2]; 1.5e-08 M in assay [3]; 1.3e-07 M in assay [4]; 9.41e-08 M in assay [5]; 6.39e-08 M in assay [6]. In addition, the values for the 50% inhibitory concentration (IC50) in assay [7] and in assay [8] were 1.67e-07 M and 1.4e-08 M, respectively.
In the case of `CCOC(=O)C(Cl)Cc1cc(-n2nc(C)n(C(F)F)c2=O)c(F)cc1Cl` (centres unmarked) [CARFENTRAZONE-ETHYL], the 50% inhibitory concentration (IC50) was 1.21e-07 M in assay [1]; 7.86e-08 M in assay [2]; 3.96e-07 M in assay [3]; 1.61e-07 M in assay [4]; 2.29e-08 M in assay [5]; 2.99e-08 M in assay [6]. The half-maximal inhibitory concentration (IC50) in assay [7] was 1.88e-07 M; in assay [8], 2.07e-07 M.
On to `COC(Oc1ccccc1Oc1cc(-n2c(=O)cc(C(F)(F)F)n(C)c2=O)c(F)cc1Cl)C(=O)OC1CCCCC1` (centres unmarked), for which the half-inhibitory concentration (IC50) turned out to be 2.97e-07 M in assay [1]; 3.22e-08 M in assay [2]; 1.01e-07 M in assay [3]; 1.07e-07 M in assay [4]; 1.49e-08 M in assay [5]; 2.98e-08 M in assay [6]. The IC50 in assay [7] was 1.48e-07 M; in assay [8], 3.78e-08 M.
As to `C#CCN1C(=O)C(F)(F)Oc2cc(F)c(N3C(=O)C4=C(CCCC4)C3=O)cc21`, the IC50 in assay [1] was 3.07e-06 M; in assay [2] it was no less than 1e-05 M; in assay [3], 3.7e-06 M; in assay [4], no less than 1e-05 M; in assay [5] it was 3.11e-06 M; in assay [6] it was 3.57e-06 M. The IC50 in assay [7] is no less than 1e-05 M; in assay [8] it was 4.32e-06 M.
Take `C#CCN1C(=O)C(F)(F)Oc2cc(F)c(-n3c(=O)cc(C(F)(F)F)n(C)c3=O)cc21`: the 50% inhibitory concentration (IC50) in assay [1] was 1.05e-08 M; in assay [2], 4.94e-08 M; in assay [3], 2.6e-08 M; in assay [4] it was 2.69e-07 M; in assay [5], 4.65e-08 M; in assay [6], 1.11e-08 M. Further, the IC50 came to 5.94e-08 M in assay [7] and 9.01e-08 M in assay [8].
